Test results taken from US6949586B2, “Synergistic composition of trans-tetracos-15-enoic acid and Apocynin and method of treatment for hepatotoxicity” (Council of Scientific Research, priority 2002, dated 2005).

What was measured:
Assay type in all cases: in vivo
[1] = test system: bile flow and bile solids; experiment: Chloretic activity: bile flow and bile solids after bile duct cannulation; conditions: rats, 50 mg kg−1 i.d.; bile collected 0-5 hours; mean ± SE
From the text: The liver, by producing bile, plays an important role in digestion. The presence of bile in the intestine is necessary to accomplish the digestion and absorption of fats as well as absorption of the fat-soluble vitamins—A, D, E & K. Bile is also an important vehicle of excretion. It removes many drugs, toxins, bile pigments and various inorganic substances either derived from the diet or synthesized by the body as cholesterol or as cholic acid.
Effect on the liver bile flow of test drug and that of vehicle is carried out after cannulating the bile duct in normal anaesthesied rats. Bile collected is from each animal from 0-5 hours (Klaassen, 1969, Donal et al. 1953). (Table 5)

[2] = test system: galactosamine, paracetamol and CCl4 as hepatotoxins; experiment: Earlier RRL Jammu study of hepatoprotective effect against galactosamine, paracetamol and CCl4; conditions: synthesized constituent; silymarin as reference material
[3] = test system: Acetaminophen (APAP) induced hepatotoxicity; experiment: Paracetamol (Acetaminophen, APAP) induced hepatotoxicity after diethyl-ether inhalation; conditions: mice, 50 mg kg−1 p.o., mean ± S.E.
From the text: Paracetamol (APAP, Acetaminophen): It is a therapeutic agent widely used as analgesic/antipyretic drug. When taken in large doses it causes hepatic necrosis which leads to biochemical changes having clinical features similar to those of acute viral hepatitis in humans (Proudfoot and Wright, 1970). The similar effect is observed in animals. The toxic effect can be potentiated if it is given several hours after the anesthetic ether inhalation (Wells et. al., 1986). Liver injury is induced by injecting paracetamol (200 mg.kg^-1) interaperitoneally in normal saline (pH 9.4) six hour after inhalation of anesthetic ether (4 ml/4 min/6 animals) in a closed chamber. The control animals received the equal volume of vehicle. […] (Table 2) GPT and GOT: Pyruvate formed by transamination reaction is determined spectrophotometrically after reaction with 2,4-dinitrophenylhydrazine (Reitman and Frankel, 1957). ALP: p-nitrophenol formed in alkaline medium is measured spectrophotometrically using p-nitrophenyl phosphate as substrate (Walter and Schutt, 1974). Bilirubin : Total bilirubin is measured by diazotization reaction with NaNO2 (Malloy and Evelyn, 1937) Triglycerides: Triglycerides from serum are extracted with isopropanol and sopanified with KOH. The liberated glycerol is converted to formaldehyde by periodate and determined after reaction with acetyl acetone. […]

C[C@H](CCC(=O)O)[C@H]1CC[C@H]2[C@@H]3C(=O)C[C@@H]4CC(=O)CC[C@]4(C)[C@H]3CC(=O)[C@]12C [DHC, Dehydrocholic acid]
Bile flow (ml %), % Increase (as compared to normal) [1]: 38.40 ± 2.76%
Bile solids (mg %), % Increase (as compared to normal) [1]: 28.13 ± 3.89%

CCCCCCCC/C=C/CCCCCCCCCCCCCC(=O)O [TCA, trans-tetracos-15-enoic acid]
hepatoprotective effect against galactosamine, paracetamol and CCl4 as hepatotoxins [2]: dose related hepatoprotective effect
Hepatic Lipid Peroxidation [3]: 44.24 ± 2.22 n moles MDA/g liver
